Measured values taken from patent publication US12037343B2, “Process for the preparation of sodium (2r,5s,13ar)-7,9-dioxo-10-((2,4,6,-trifluorobenzyl)carbamoyl)-2,3,4,5,7,9,13,13A-octahydro-2,5-methanopyrido[1′,2′:4,5]pyrazino[2,1-B] [1,3] oxazepin-8-olate and its polymorphic form” (Honour Lab Limited, priority 2018, dated 2024).
Read-outs that look alike come from different tables or passages of the source.

Type: physicochemical
Experimental: The stability of sample was tested by storing the samples at 40° C./75% relative humidity (RH) and 25° C./60% RH for 6 months. The stability of samples was tested by PXRD, HPLC and water content was measured by Karl Fischer method.

O=C(NCc1c(F)cc(F)cc1F)c1cn2c(c(O)c1=O)C(=O)N1[C@H]3CC[C@H](C3)O[C@@H]1C2 [Form HN-1, sodium (2R,5S,13aR)-7,9-dioxo-10-((2,4,6-trifluorobenzyl)carbamoyl)-2,3,4,5,7,9,13,13a-octahydro-2,5-methanopyrido [1′,2′:4,5]pyrazino[2,1-b][1,3] oxazepin-8-olate]
stability (PXRD pattern, water content, purity after storage): physically and chemically stable | Physical form (as assessed by PXRD) (4 month, 25° C./60% RH): Crystalline | Purity by HPLC (4 month, 25° C./60% RH): 99.78% | Water content by Karl Fischer method (4 month, 25° C./60% RH): 3.7% | Physical form (as assessed by PXRD) (4 month, 40° C./75% RH): Crystalline | Purity by HPLC (4 month, 40° C./75% RH): 99.78% | Water content by Karl Fischer method (4 month, 40° C./75% RH): 3.6% | Physical form (as assessed by PXRD) (5 month, 25° C./60% RH): Crystalline | Purity by HPLC (5 month, 25° C./60% RH): 99.78% | Water content by Karl Fischer method (5 month, 25° C./60% RH): 3.9% | Physical form (as assessed by PXRD) (5 month, 40° C./75% RH): Crystalline | Purity by HPLC (5 month, 40° C./75% RH): 99.77% | Water content by Karl Fischer method (5 month, 40° C./75% RH): 3.9% | Physical form (as assessed by PXRD) (6 month, 25° C./60% RH): Crystalline | Purity by HPLC (6 month, 25° C./60% RH): 99.78% | Water content by Karl Fischer method (6 month, 25° C./60% RH): 3.8% | Physical form (as assessed by PXRD) (6 month, 40° C./75% RH): Crystalline | Purity by HPLC (6 month, 40° C./75% RH): 99.78% | Water content by Karl Fischer method (6 month, 40° C./75% RH): 3.8% | Physical form (as assessed by PXRD) (Initial): Crystalline | Purity by HPLC (Initial): 99.82% | Water content by Karl Fischer method (Initial): 4.2%
